Biological target: endogenous CGRP receptor (Homo sapiens, UniProt O60894+Q16602)
Test: CGRP functional antagonism using SK-N-MC-BLA (4C10), β-lactamase transcriptional reporter assay
Format: cell-based
Details: SK-N-MC (4C10) cells, inhibition of β-lactamase expression in the presence of 200 pM CGRP

Sequence of endogenous CGRP receptor (Q16602 23-461): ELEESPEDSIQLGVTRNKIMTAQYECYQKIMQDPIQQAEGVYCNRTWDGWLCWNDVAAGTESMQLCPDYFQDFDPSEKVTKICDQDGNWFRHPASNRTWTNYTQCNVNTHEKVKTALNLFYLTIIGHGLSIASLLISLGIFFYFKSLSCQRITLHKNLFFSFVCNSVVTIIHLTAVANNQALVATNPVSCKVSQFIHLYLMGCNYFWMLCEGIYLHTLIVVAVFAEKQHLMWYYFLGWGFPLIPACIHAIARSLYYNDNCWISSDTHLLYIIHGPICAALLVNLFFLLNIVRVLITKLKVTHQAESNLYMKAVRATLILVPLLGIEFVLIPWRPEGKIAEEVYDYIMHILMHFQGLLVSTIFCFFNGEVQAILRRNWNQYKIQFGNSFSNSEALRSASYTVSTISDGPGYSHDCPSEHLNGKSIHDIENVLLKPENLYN
Sequence of endogenous CGRP receptor (O60894 27-148): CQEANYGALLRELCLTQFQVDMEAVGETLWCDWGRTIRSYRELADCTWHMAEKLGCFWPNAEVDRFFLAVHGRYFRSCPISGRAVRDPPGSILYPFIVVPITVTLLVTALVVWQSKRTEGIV

SMILES | IC50
CC(C)CCN1C(=O)C(CC(=O)N2CCC(c3cc4ccccc4[nH]c3=O)CC2)SC1c1ccccc1 (stereo not drawn) [Compound 249] | < 1000 nM
CC(C)CCN1C(=O)C(C(C)C(=O)N2CCC(N3Cc4ccccc4NC3=O)CC2)SC1c1ccccc1 (stereo not drawn) [Compound 156, 3-(1-(2-(3-Isopentyl-4-oxo-2-phenylthiazolidin-5-yl)propanoyl)piperidin-4-yl)-3,4-dihydroquinazolin-2(1H)-one] | < 1000 nM
CC(C)CCN1C(=O)C(CC(=O)N2CCC(N3Cc4ccccc4NC3=O)CC2)SC1c1ccc(Cl)cc1 (stereo not drawn) [Compound 158] | 1000 to 5000 nM
CN(C)C1CCN(c2c(F)cccc2[C@H]2S[C@@H](CC(=O)N3CCC(n4c(=O)[nH]c5ncccc54)CC3)C(=O)N2CCC(C)(C)C)C1 (stereo partly drawn) [Compound 455] | 1000 to 5000 nM
COc1ccc(C2SC(CC(=O)N3CCC(N4Cc5ccccc5NC4=O)CC3)C(=O)N2CCC(C)C)cc1F (stereo not drawn) [Compound 18] | 1000 to 5000 nM
CCCCCCCC1SC(CC(=O)N2CCC(N3Cc4ccccc4NC3=O)CC2)C(=O)N1CCC(C)C (stereo not drawn) [Compound 71] | > 5000 nM
CC(C)(C)CCN1C(=O)C(CC(=O)N2CCC(N3CCc4ccccc4NC3=O)CC2)SC1c1ncc[nH]1 (stereo not drawn) [Compound 314] | > 5000 nM
CC(C)CCN1C(=O)C(CC(=O)N2CCC(N3CCc4ccccc4NC3=O)CC2)SC1c1ccc(F)c(F)c1 (stereo not drawn) [Compound 155] | < 1000 nM
CCC(CC)C1SC(CC(=O)N2CCC(N3CCc4ccccc4NC3=O)CC2)C(=O)N1CCC(C)C (stereo not drawn) [Compound 207] | < 1000 nM
CN1CCC(N2CCN(c3ccccc3C3SC(CC(=O)N4CCC(n5c(=O)[nH]c6ncccc65)CC4)C(=O)N3CCC(C)(C)C)CC2)CC1 (stereo not drawn) [Compound 381] | > 5000 nM
CN1CCN(c2cccc(C3SC(CC(=O)N4CCC(N5CCc6ccccc6NC5=O)CC4)C(=O)N3CCC(C)(C)C)c2)CC1 (stereo not drawn) [Compound 412] | < 1000 nM
CC(C)CCN1C(=O)C(CC(=O)N2CCC(NC(=O)Nc3ccccn3)CC2)SC1c1ccccc1 (stereo not drawn) [Compound 200] | > 5000 nM
O=C(CC1SC(c2ccccc2)N(CC(F)(F)C(F)(F)F)C1=O)N1CCC(N2CCc3ccccc3NC2=O)CC1 (stereo not drawn) [Compound 233] | < 1000 nM
CCCCN1CCN(c2ccccc2C2SC(CC(=O)N3CCC(N4Cc5ccccc5NC4=O)CC3)C(=O)N2CCC(C)(C)C)CC1 (stereo not drawn) [Compound 364] | > 5000 nM
CC(C)CCN1C(=O)C(CC(=O)N2CCC(N3CCc4ccccc4NC3=O)CC2)SC1c1cccnc1N1CCOCC1 (stereo not drawn) [Compound 125] | < 1000 nM
CC(C)CCN1C(=O)C(CC(=O)N2CCC(n3c(=O)[nH]c4ncccc43)CC2)SC1c1ccccc1 (stereo not drawn) [Compound 69] | < 1000 nM
CN1CCC(N2CCN(c3ccccc3C3SC(CC(=O)N4CCC(N5CCc6ccccc6NC5=O)CC4)C(=O)N3CCC(C)(C)C)CC2)CC1 (stereo not drawn) [Compound 379] | < 1000 nM
CC(C)(C)CC1SC(CC(=O)N2CCC(n3c(=O)[nH]c4ncccc43)CC2)C(=O)N1c1ccccc1N1CCCCC1 (stereo not drawn) [Compound 428] | > 5000 nM
CN1CCN(c2ccccc2[C@@H]2S[C@](C)(CC(=O)N3CCC(n4c(=O)[nH]c5ncccc54)CC3)C(=O)N2CCC(C)(C)C)CC1 [Compound 378] | < 1000 nM
CC(C)N1CCN(c2ncccc2C2S[C@@H](CC(=O)N3CCC(N4CCc5ccccc5NC4=O)CC3)C(=O)N2CCC(C)(C)C)CC1 (stereo partly drawn) [Compound 444] | > 5000 nM
Cc1cc(C)c(C2SC(CC(=O)N3CCC(N4CCc5ccccc5NC4=O)CC3)C(=O)N2CCC(C)C)c(C)c1 (stereo not drawn) [Compound 21] | < 1000 nM
CC(C)CCN1C(=O)C(CC(=O)N2CCC(N3CCc4ccccc4NC3=O)CC2)SC1c1ccccc1N(C)C (stereo not drawn) [Compound 152] | < 1000 nM

SMILES | IC50
Cc1cc(C2SC(CC(=O)N3CCC(N4CCc5ccccc5NC4=O)CC3)C(=O)N2CCC(C)C)cc2cn[nH]c12 (stereo not drawn) [Compound 206] | < 1000 nM
CC(C)(C)CCN1C(=O)C(CC(=O)N2CCC(N3CCc4ccccc4NC3=O)CC2)SC12CCCc1ccccc12 (stereo not drawn) [Compound 308] | < 1000 nM
CC(C)CCN1C(=O)C(CC(=O)N2CCC(N3Cc4ccccc4NC3=O)CC2)SC12CCOCC2 (stereo not drawn) [Compound 196] | 1000 to 5000 nM
CC(C)CCN1C(=O)C(CC(=O)N2CCC(N3CCc4ccccc4NC3=O)CC2)SC1c1c(Cl)cccc1Cl (stereo not drawn) [Compound 89] | < 1000 nM
CCN1C(=O)C(CC(=O)N2CCC(N3CCc4ccccc4NC3=O)CC2)SC1c1ccccc1 (stereo not drawn) [Compound 284] | 1000 to 5000 nM
COc1ccc(F)cc1C1CCN(C(=O)CC2SC(c3ccccc3)N(CCC(C)C)C2=O)CC1 (stereo not drawn) [Compound 281] | > 5000 nM
CC(C)CCN1C(=O)C(CC(=O)N2CCC(N3Cc4ccccc4NC3=O)CC2)SC1c1cccc(C(F)(F)F)c1F (stereo not drawn) [Compound 219] | 1000 to 5000 nM
CC(C)CCN1C(=O)C(CC(=O)N2CCC3(CC2)CNC(=O)O3)SC1c1ccccc1 (stereo not drawn) [Compound 261] | > 5000 nM
CN1CCN(c2ccccc2[C@@H]2SC(CC(=O)N3CCC(n4c(=O)[nH]c5ccccc54)CC3)C(=O)N2CCC(C)(C)C)CC1 (stereo partly drawn) [Compound 161] | < 1000 nM
CC(=O)N1CCC2(CCN(C(=O)CC3SC(c4ccccc4)N(CCC(C)C)C3=O)CC2)c2ccccc21 (stereo not drawn) [Compound 157] | > 5000 nM
Cc1c(F)cccc1C1SC(CC(=O)N2CCC(N3CCc4ccccc4NC3=O)CC2)C(=O)N1CCC(C)C (stereo not drawn) [Compound 26] | < 1000 nM
CN1CCN(c2ccccc2[C@H]2SC(CC(=O)N3CCC(n4c(=O)[nH]c5ncccc54)CC3)C(=O)N2CCC(C)(C)C)CC1 (stereo partly drawn) [Compound 47] | < 1000 nM
CC(C)CC1SC(CC(=O)N2CCC(N3CCc4ccccc4NC3=O)CC2)C(=O)N1CCc1ccncc1 (stereo not drawn) [Compound 245] | > 5000 nM
CCCCCCCC1SC(CC(=O)N2CCC(N3CCc4ccccc4NC3=O)CC2)C(=O)N1CCC(C)C (stereo not drawn) [Compound 74] | 1000 to 5000 nM
CC(C)(C)CCN1C(=O)C(CC(=O)N2CCC(N3Cc4ccccc4NC3=O)CC2)SC12CCSCC2 (stereo not drawn) [Compound 31] | < 1000 nM
CC(C)(C)CCN1C(=O)C(CC(=O)N2CCC(N3Cc4ccccc4NC3=O)CC2)SC1(C)c1ccccc1 (stereo not drawn) [Compound 312] | < 1000 nM
CC(C)(C)CCN1C(=O)[C@H](CC(=O)N2CCC(n3c(=O)[nH]c4ncccc43)CC2)S[C@H]1c1cccc(F)c1N1CCC(N)C1 (stereo partly drawn) [Compound 465] | 1000 to 5000 nM
CC(C)CCN1C(=O)C(CC(=O)N2CCC(N3Cc4ccccc4NC3=O)CC2)SC1CC(C)(C)C (stereo not drawn) [Compound 276] | 1000 to 5000 nM
CC(C)N1CCN(c2c(F)cccc2[C@@H]2S[C@](C)(CC(=O)N3CCC(N4CCc5ccccc5NC4=O)CC3)C(=O)N2CCC(C)(C)C)CC1 [Compound 430] | > 5000 nM
Cc1cc(C)c(C2SC(CC(=O)N3CCC(N4Cc5ccccc5NC4=O)CC3)C(=O)N2CCC(C)C)c(C)c1 (stereo not drawn) [Compound 51] | < 1000 nM
CCCN1C(=O)[C@H](CC(=O)N2CCC(N3CCc4ccccc4NC3=O)CC2)SC1c1cccc(F)c1N1CCN(C(C)(C)C)CC1 (stereo partly drawn) [Compound 536] | < 1000 nM
CCN(CC)CCN1C(=O)C(CC(=O)N2CCC(N3Cc4ccccc4NC3=O)CC2)SC1c1ccccc1 (stereo not drawn) [Compound 82] | 1000 to 5000 nM

Next, values leading:

IC50 | SMILES
1000 to 5000 nM | COC(=O)[C@@H](CC1CCCCC1)N1C(=O)C(CC(=O)N2CCC(N3CCc4ccccc4NC3=O)CC2)SC1c1ccccc1 (stereo partly drawn) [Compound 243]
1000 to 5000 nM | O=C(CC1SC(c2ccccc2)N(Cc2ccncc2)C1=O)N1CCC(N2Cc3ccccc3NC2=O)CC1 (stereo not drawn) [Compound 46]
> 5000 nM | CCC1SC(CC(=O)N2CCC(n3cc(-c4ccccc4)[nH]c3=O)CC2)C(=O)N1CC1CC1 (stereo not drawn) [Compound 146]
> 5000 nM | CC(C)N1CCN(c2cccc(Cl)c2C2S[C@H](CC(=O)N3CCC(N4CCc5ccccc5NC4=O)CC3)C(=O)N2CCC(C)(C)C)CC1 (stereo partly drawn) [Compound 433]
> 5000 nM | CC(C)CCN1C(=O)C(CC(=O)N2CCC3(CCc4ccccc43)CC2)SC1c1ccccc1 (stereo not drawn) [Compound 167]
1000 to 5000 nM | CCCN1C(=O)C(CC(=O)N2CCC(N3Cc4ccccc4NC3=O)CC2)SC1c1ccccc1 (stereo not drawn) [Compound 269]
1000 to 5000 nM | C=CCN1C(=O)C(CC(=O)N2CCC(N3CCc4ccccc4NC3=O)CC2)SC1c1ccccc1 (stereo not drawn) [Compound 96]
1000 to 5000 nM | CC(C)CCN1C(=O)C(CC(=O)N2CCC(N3Cc4ccccc4NC3=O)CC2)SC1c1ccc(N(C)C)cc1 (stereo not drawn) [Compound 124]
< 1000 nM | CCCC1SC(CC(=O)N2CCC(N3Cc4ccccc4NC3=O)CC2)C(=O)N1CCC(C)C (stereo not drawn) [Compound 192]
> 5000 nM | COCC(C)N1C(=O)C(CC(=O)N2CCC(N3Cc4ccccc4NC3=O)CC2)SC1c1ccccc1 (stereo not drawn) [Compound 250]
< 1000 nM | CC(C)CCN1C(=O)C(CC(=O)N2CCC(n3c(=O)[nH]c4ccccc43)CC2)SC1c1ccccc1N(C)C (stereo not drawn) [Compound 293]
> 5000 nM | CC(C)N1CCN(c2c(F)cccc2[C@@H]2S[C@@H](CC(=O)N3CCC(N4CCc5ccccc5NC4=O)CC3)C(=O)N2CCC(C)(C)C)CC1 [Compound 395]
1000 to 5000 nM | COC(=O)[C@H](CC(C)C)N1C(=O)C(CC(=O)N2CCC(N3Cc4ccccc4NC3=O)CC2)SC1c1ccccc1 (stereo partly drawn) [Compound 205]
< 1000 nM | Cc1ccc(C2SC(CC(=O)N3CCC(N4CCc5ccccc5NC4=O)CC3)C(=O)N2CCC(C)C)c(C)c1 (stereo not drawn) [Compound 73]
< 1000 nM | CC(C)CCN1C(=O)C(CC(=O)N2CCC(N3Cc4ccccc4NC3=O)CC2)SC12CCCCCC2 (stereo not drawn) [Compound 32]
< 1000 nM | CN1CCN(c2cccc(C3SC(CC(=O)N4CCC(n5c(=O)[nH]c6ncccc65)CC4)C(=O)N3CCC(C)(C)C)c2)CC1 (stereo not drawn) [Compound 413]
< 1000 nM | CC(C)CCN1C(=O)C(CC(=O)N2CCC(N3Cc4ccccc4NC3=O)CC2)SC1C1CCCOC1 (stereo not drawn) [Compound 209]
1000 to 5000 nM | COC(=O)[C@H](CC1CCCCC1)N1C(=O)C(CC(=O)N2CCC(N3Cc4ccccc4NC3=O)CC2)SC1c1ccccc1 (stereo partly drawn) [Compound 55]
< 1000 nM | CCCN1C(=O)[C@H](CC(=O)N2CCC(N3CCc4ccccc4NC3=O)CC2)SC1c1cccc(F)c1N1CCN(C(C)(C)C)CC1 (stereo partly drawn) [Compound 537]
1000 to 5000 nM | COc1ccc(C2SC(CC(=O)N3CCC(N4Cc5ccccc5NC4=O)CC3)C(=O)N2CCC(C)C)cc1OC (stereo not drawn) [Compound 228]
< 1000 nM | CC(C)(C)CCN1C(=O)C(CC(=O)N2CCC(n3c(=O)[nH]c4ccccc43)CC2)SC1c1ccccc1N1CCOCC1 (stereo not drawn) [Compound 300]
1000 to 5000 nM | CC(C)N1C(=O)C(CC(=O)N2CCC(N3CCc4ccccc4NC3=O)CC2)SC1c1ccccc1 (stereo not drawn) [Compound 24]
